According to ChEMBL document CHEMBL3885881, “DrugMatrix”:

Species on record: Rattus norvegicus
Assay: DrugMatrix - Regimen: Daily Repeat
Assay type: toxicity, organism-based, Sprague-Dawley
Parameters: regimen Daily Repeat, gender Male, age 6-8 weeks
Conditions: in vivo, po, route oral GAVAGE, […]; for ABSOLUTE BASOPHIL / ABSOLUTE EOSINOPHIL / ABSOLUTE LYMPHOCYTE / ABSOLUTE SEGMENTED NEUTROPHIL / BASOPHIL / EOSINOPHIL / ERYTHROCYTE COUNT / HEMATOCRIT / HEMOGLOBIN / LEUKOCYTE COUNT / LYMPHOCYTE / MEAN CORPUSCULAR HEMOGLOBIN / MEAN CORPUSCULAR HEMOGLOBIN CONCENTRATION / MEAN CORPUSCULAR VOLUME / MONOCYTE / NEUTROPHIL / NUCLEATED RED BLOOD CELLS / PLATELET COUNT: tissue Blood; for ALANINE AMINOTRANSFERASE / ALBUMIN / ALKALINE PHOSPHATASE / ASPARTATE AMINOTRANSFERASE / BLOOD UREA NITROGEN / CARBON DIOXIDE / CHLORIDE / CHOLESTEROL / CREATINE PHOSPHOKINASE / CREATININE / GLUCOSE / LACTATE DEHYDROGENASE / LIPASE / PHOSPHORUS / POTASSIUM / SODIUM / TOTAL BILIRUBIN / TOTAL PROTEIN / URIC ACID: tissue Plasma
[1] = 15 mg/kg, 120 h, dose level Low, time 5 day
[2] = 1200 mg/kg, 72 h, dose level High, time 3 day
[3] = 1200 mg/kg, 120 h, dose level High, time 5 day

## CCC(C)(C)C(=O)O[C@H]1C[C@@H](C)C=C2C=C[C@H](C)[C@H](CC[C@@H]3C[C@@H](O)CC(=O)O3)[C@H]21 [SIMVASTATIN]
[1]
  ABSOLUTE BASOPHIL: 0 CELLS/uL
  ABSOLUTE EOSINOPHIL: 0 CELLS/uL
  ABSOLUTE LYMPHOCYTE: 6051 CELLS/uL
  ABSOLUTE SEGMENTED NEUTROPHIL: 802.33 CELLS/uL
  BASOPHIL: 0%
  EOSINOPHIL: 0%
  ERYTHROCYTE COUNT: 5.09 x10E6/uL
  HEMATOCRIT: 32.87%
  HEMOGLOBIN: 12.87 G/DL
  LEUKOCYTE COUNT: 6.93 x10E3/uL
  LYMPHOCYTE: 87.67%
  MEAN CORPUSCULAR HEMOGLOBIN: 25.33 pg
  MEAN CORPUSCULAR HEMOGLOBIN CONCENTRATION: 39.2 G/DL
  MEAN CORPUSCULAR VOLUME: 64.63 fL
  MONOCYTE: 1%
  NEUTROPHIL: 11.33%
  NUCLEATED RED BLOOD CELLS: 0 /100WBC
  PLATELET COUNT: 1251.33 x10E3/uL
  ALANINE AMINOTRANSFERASE: 57.67 u/L
  ALBUMIN: 4 G/DL
  ALKALINE PHOSPHATASE: 335.33 u/L
  ASPARTATE AMINOTRANSFERASE: 77.67 u/L
  BLOOD UREA NITROGEN: 14.67 mg/dL
  CARBON DIOXIDE: 30.67 mmol/L
  CHLORIDE: 99 MEQ/L
  CHOLESTEROL: 66.33 mg/dL
  CREATINE PHOSPHOKINASE: 168.67 u/L
  CREATININE: 0.17 mg/dL
  GLUCOSE: 178.67 mg/dL
  LACTATE DEHYDROGENASE: 64 u/L
  LIPASE: 9.33 u/L
  PHOSPHORUS: 11.6 mg/dL
  POTASSIUM: 5.71 MEQ/L
  SODIUM: 144.13 MEQ/L
  TOTAL BILIRUBIN: 0.1 mg/dL
  TOTAL PROTEIN: 5.6 G/DL
  URIC ACID: 0.67 mg/dL
[2]
  ABSOLUTE BASOPHIL: 0 CELLS/uL
  ABSOLUTE EOSINOPHIL: 0 CELLS/uL
  ABSOLUTE LYMPHOCYTE: 6224.67 CELLS/uL
  ABSOLUTE SEGMENTED NEUTROPHIL: 3273.67 CELLS/uL
  BASOPHIL: 0%
  EOSINOPHIL: 0%
  ERYTHROCYTE COUNT: 6.06 x10E6/uL
  HEMATOCRIT: 37.77%
  HEMOGLOBIN: 14.83 G/DL
  LEUKOCYTE COUNT: 9.57 x10E3/uL
  LYMPHOCYTE: 66%
  MEAN CORPUSCULAR HEMOGLOBIN: 24.57 pg
  MEAN CORPUSCULAR HEMOGLOBIN CONCENTRATION: 39.27 G/DL
  MEAN CORPUSCULAR VOLUME: 62.5 fL
  MONOCYTE: 0.67%
  NEUTROPHIL: 33.33%
  NUCLEATED RED BLOOD CELLS: 0 /100WBC
  PLATELET COUNT: 1143.67 x10E3/uL
  ALANINE AMINOTRANSFERASE: 323.67 u/L
  ALBUMIN: 4.43 G/DL
  ALKALINE PHOSPHATASE: 403.67 u/L
  ASPARTATE AMINOTRANSFERASE: 291.33 u/L
  BLOOD UREA NITROGEN: 12 mg/dL
  CARBON DIOXIDE: 33 mmol/L
  CHLORIDE: 97.67 MEQ/L
  CHOLESTEROL: 46.33 mg/dL
  CREATINE PHOSPHOKINASE: 1429 u/L
  CREATININE: 0.1 mg/dL
  GLUCOSE: 174.33 mg/dL
  LACTATE DEHYDROGENASE: 212.33 u/L
  LIPASE: 26 u/L
  PHOSPHORUS: 7.2 mg/dL
  POTASSIUM: 5.3 MEQ/L
  SODIUM: 144.93 MEQ/L
  TOTAL BILIRUBIN: 0.17 mg/dL
  TOTAL PROTEIN: 5.67 G/DL
  URIC ACID: 0.5 mg/dL
[3]
  ABSOLUTE BASOPHIL: 0 CELLS/uL
  ABSOLUTE EOSINOPHIL: 0 CELLS/uL
  ABSOLUTE LYMPHOCYTE: 2769 CELLS/uL
  ABSOLUTE SEGMENTED NEUTROPHIL: 4331 CELLS/uL
  BASOPHIL: 0%
  EOSINOPHIL: 0%
  ERYTHROCYTE COUNT: 6.93 x10E6/uL
  HEMATOCRIT: 43.8%
  HEMOGLOBIN: 17.4 G/DL
  LEUKOCYTE COUNT: 7.1 x10E3/uL
  LYMPHOCYTE: 39%
  MEAN CORPUSCULAR HEMOGLOBIN: 25.1 pg
  MEAN CORPUSCULAR HEMOGLOBIN CONCENTRATION: 39.7 G/DL
  MEAN CORPUSCULAR VOLUME: 63.2 fL
  MONOCYTE: 0%
  NEUTROPHIL: 61%
  NUCLEATED RED BLOOD CELLS: 0 /100WBC
  PLATELET COUNT: 1317 x10E3/uL
  ALANINE AMINOTRANSFERASE: 285 u/L
  ALBUMIN: 4.7 G/DL
  ALKALINE PHOSPHATASE: 273 u/L
  ASPARTATE AMINOTRANSFERASE: 367 u/L
  BLOOD UREA NITROGEN: 37 mg/dL
  CARBON DIOXIDE: 35 mmol/L
  CHLORIDE: 82 MEQ/L
  CHOLESTEROL: 103 mg/dL
  CREATINE PHOSPHOKINASE: 1419 u/L
  CREATININE: 0.1 mg/dL
  GLUCOSE: 205 mg/dL
  LACTATE DEHYDROGENASE: 510 u/L
  LIPASE: 55 u/L
  PHOSPHORUS: 9 mg/dL
  POTASSIUM: 4.84 MEQ/L
  SODIUM: 136.7 MEQ/L
  TOTAL BILIRUBIN: 0.2 mg/dL
  TOTAL PROTEIN: 6.1 G/DL
  URIC ACID: 0.6 mg/dL
